# Data as given in US20230373929A1, “FUSED RING DIIMIDE DERIVATIVE, PREPARATION METHOD AND USE THEREOF” (XIANGBEI WELMAN PHARMACEUTICAL CO., LTD., priority 2020, published 2023).
# Like-named read-outs stand apart in the source and are kept apart here.
# Experiments:
# [1] = tested on: human colon cancer cells HT-29; assay: anti-proliferative activity against tumor cells, resazurin (Alamar blue) assay, HT-29; type: cell-based; conditions: read-out: IC50 Grades of Inhibitory Effects of Compounds on Tumor Cells, HT-29
# Method: (§1) Objective: To test the anti-proliferative activity of the compound of the present disclosure against various tumor cells.
# (§2) Test cells: human colon cancer cells (HT-29, COLO 205), human lung cancer cells (NCI-H460, A549) and human leukemia cells (HL-60, U-937).
# (§3) Test method: each tumor cell was tested separately. Cells were incubated in medium at […] for 24 hours before use. The cells growing in an exponential growth phase were harvested and treated with trypsin to prepare a cell suspension, the cell suspension was centrifuged, then the cell pellet was resuspended in a small amount of fresh medium as a cell stock. The cell stock was diluted to required cell concentrations.
# (§4) The test was carried out on 96-well plates; blank control groups, cell control groups and compound treatment groups were set up. In the blank control groups, only 10% PBS was added to each well, while in the cell control groups and the compound treatment groups, 100 μL of cells at the above concentration were added to each well, and then each well was filled with 200 μL of 10% PBS. The plates were placed in an incubator overnight. In the compound treatment groups, 100 μL of each test compound at different dilution concentrations was added to each well, the dilution concentrations of the compounds are as shown in Table 2.
# (§5) After the addition of the drug to each well was completed, the plates were cultured in an incubator for 96 hours, 22 μL of resazurin sodium solution (Alarm blue, SIGMA R7017) was added to each well. The plates were returned to the incubator for another 4 hours of incubation and then shaken for 10 seconds after being taken out. The fluorescence value of each well were recorded at 530/590 nm.
# (§6) The above operations were repeated three times.
# (§7) The IC50 value of each test compound was calculated by Prism7 software. IC50 was divided into different grades according to values, that is, SS: <1 μM; S: 1-5 μM; A: 5-10 μM; B: 11-20 μM; C: 21-50 μM; D: 51-100 μM; E: >100 μM.
# [2] = tested on: human leukemia cells U-937; assay: anti-proliferative activity against tumor cells, resazurin assay, U-937; type: cell-based; conditions: read-out: IC50 Grades of Inhibitory Effects of Compounds on Tumor Cells, U-937
# Method: as §1, §2, §3, §4, §5, §6, §7
# [3] = tested on: human lung cancer cells A549; assay: anti-proliferative activity against tumor cells, resazurin assay, A549; type: cell-based; conditions: read-out: IC50 Grades of Inhibitory Effects of Compounds on Tumor Cells, A549
# Method: as §1, §2, §3, §4, §5, §6, §7
# [4] = tested on: human colon cancer cells COLO 205; assay: anti-proliferative activity against tumor cells, resazurin assay, COLO 205; type: cell-based; conditions: read-out: IC50 Grades of Inhibitory Effects of Compounds on Tumor Cells, COLO205
# Method: as §1, §2, §3, §4, §5, §6, §7
# [5] = tested on: human lung cancer cells NCI-H460; assay: anti-proliferative activity against tumor cells, resazurin assay, NCI-H460; type: cell-based; conditions: read-out: IC50 Grades of Inhibitory Effects of Compounds on Tumor Cells, NCI-H460
# Method: as §1, §2, §3, §4, §5, §6, §7
# [6] = tested on: human leukemia cells HL-60; assay: anti-proliferative activity against tumor cells, resazurin assay, HL-60; type: cell-based; conditions: read-out: IC50 Grades of Inhibitory Effects of Compounds on Tumor Cells, HL-60
# Method: as §1, §2, §3, §4, §5, §6, §7
# tumor cells = assay: anti-proliferative activity, overall comparison over all tumor cells; type: cell-based, human; conditions: all tested tumor cells, under the test condition of the present disclosure
# Method: as §1, §2, §3
# (§8) The test was carried out on 96-well plates; blank control groups, cell control groups and compound treatment groups were set up. In the blank control groups, only 10% PBS was added to each well, while in the cell control groups and the compound treatment groups, 100 μL of cells at the above concentration were added to each well, and then each well was filled with 200 μL of 10% PBS. […]
# (§9) After the addition of the drug to each well was completed, the plates were cultured in an incubator for 96 hours, 22 μL of resazurin sodium solution (Alarm blue, SIGMA R7017) was added to each well. […] The fluorescence value of each well were recorded at 530/590 nm.
# (§10) The IC50 value of each test compound was calculated by Prism7 software. […]
# colon cancer cells = assay: anti-proliferative activity, colon cancer cells; type: cell-based, human; conditions: versus similar compounds (Compound 1d, Compound 1)
# Method: as §1, §2, §3, §8, §9, §10
# [7] = Homo sapiens, HT-29, 96 hours culture, resazurin fluorescence 530/590 nm
# [8] = Homo sapiens, U-937, 96 hours culture, resazurin fluorescence 530/590 nm
# [9] = Homo sapiens, A549, 96 hours culture, resazurin fluorescence 530/590 nm
# [10] = Homo sapiens, COLO 205, COLO205, 96 hours culture, resazurin fluorescence 530/590 nm
# [11] = Homo sapiens, NCI-H460, 96 hours culture, resazurin fluorescence 530/590 nm
# [12] = Homo sapiens, HL-60, 96 hours culture, resazurin fluorescence 530/590 nm
SMILES,"IC50 [1, 7]","IC50 [2, 8]","IC50 [3, 9]","IC50 [4, 10]","IC50 [5, 11]","IC50 [6, 12]","IC50 ([1]; Homo sapiens, HT-29, 96 h)","IC50 ([2]; Homo sapiens, U-937, 96 h)","IC50 ([3]; Homo sapiens, A549, 96 h)","IC50 ([4]; Homo sapiens, COLO 205, 96 h)","IC50 ([5]; Homo sapiens, NCI-H460, 96 h)","IC50 ([6]; Homo sapiens, HL-60, 96 h)",further results
"CN(C)CCN1C(=O)c2cccc3cc(N)cc(c23)C1=O [Amonafide, reference compound]",11 to 20 µM,11 to 20 µM,1 to 5 µM,5 to 10 µM,11 to 20 µM,5 to 10 µM,,,,,,,
"O=NN(CCCl)C(=O)NCCN1C(=O)c2cccc3cc([N+](=O)[O-])cc(c23)C1=O [Compound 1, reference compound]",,,,,,,21 to 50 µM,21 to 50 µM,5 to 10 µM,21 to 50 µM,11 to 20 µM,11 to 20 µM,"overall anti-tumor activity, comparison in words (tumor cells): inferior to that of Amonafide"
"O=NN(CCCl)C(=O)NCCCCN1C(=O)c2cccc3cccc(c23)C1=O [Compound 1d, reference compound]",,,,,,,21 to 50 µM,11 to 20 µM,21 to 50 µM,21 to 50 µM,51 to 100 µM,21 to 50 µM,"overall anti-tumor activity, comparison in words (tumor cells): inferior to that of Amonafide"
O=C(NCCNCCCCN1C(=O)c2cccc3cccc(c23)C1=O)N(CCl)CCl [Compound I-01],,,,,,,1 to 5 µM,1 to 5 µM,1 to 5 µM,1 to 5 µM,5 to 10 µM,5 to 10 µM,
O=C(OCCOCCCCN1C(=O)c2cccc3cccc(c23)C1=O)N(CCl)CCl [Compound I-02],,,,,,,,,,,,,"IC50 ([1]; HT-29, 96 hours culture, resazurin fluorescence 530/590 nm): 5 to 10 µM; IC50 ([2]; U-937, 96 hours culture, resazurin fluorescence 530/590 nm): 5 to 10 µM; IC50 ([3]; A549, 96 hours culture, resazurin fluorescence 530/590 nm): 5 to 10 µM; IC50 ([4]; COLO205, 96 hours culture, resazurin fluorescence 530/590 nm): 5 to 10 µM; IC50 ([5]; NCI-H460, 96 hours culture, resazurin fluorescence 530/590 nm): 5 to 10 µM; IC50 ([6]; HL-60, 96 hours culture, resazurin fluorescence 530/590 nm): 5 to 10 µM"
O=NN(CCCl)C(=O)NCNCCN1C(=O)c2cccc3cc([N+](=O)[O-])cc(c23)C1=O [Compound I-03],,,,,,,1 to 5 µM,5 to 10 µM,1 to 5 µM,< 1 µM,5 to 10 µM,1 to 5 µM,activity relative to that of similar compounds (colon cancer cells): 50 times
O=NN(CCCl)C(=O)NCCNCCCCN1C(=O)c2cccc3cccc(c23)C1=O [Compound I-04],,,,,,,< 1 µM,1 to 5 µM,5 to 10 µM,1 to 5 µM,5 to 10 µM,1 to 5 µM,activity relative to that of similar compounds (colon cancer cells): 50 times
CON(C)C(=O)N(C)CCCCNCCN1C(=O)c2cccc3c(N(C)C)ccc(c23)C1=O [Compound I-05],1 to 5 µM,5 to 10 µM,5 to 10 µM,1 to 5 µM,5 to 10 µM,5 to 10 µM,,,,,,,
COc1ccc2cc3c(cc2c1)C(=O)N(COCCN(OC)C(=O)N(C)C)C3=O [Compound I-08],11 to 20 µM,5 to 10 µM,5 to 10 µM,5 to 10 µM,5 to 10 µM,5 to 10 µM,,,,,,,
CN(C)C(=O)NCCN(CCCN1C(=O)c2cccc3cc4ccccc4c(c23)C1=O)[N+](=O)[O-] [Compound I-10],5 to 10 µM,5 to 10 µM,5 to 10 µM,1 to 5 µM,1 to 5 µM,1 to 5 µM,,,,,,,
CCSC(=O)OCCCCOCN1C(=O)c2cccc3c(C)c4ccccc4c(c23)C1=O [Compound I-12],5 to 10 µM,11 to 20 µM,5 to 10 µM,5 to 10 µM,5 to 10 µM,11 to 20 µM,,,,,,,
CCN(C)C(=O)NCCN(CCN1C(=O)c2cccc3c2c(cc2ccccc23)C1=O)OC [Compound I-15],1 to 5 µM,1 to 5 µM,5 to 10 µM,5 to 10 µM,1 to 5 µM,5 to 10 µM,,,,,,,
CN(N=O)C(=O)NCCCCCCNCN1C(=O)c2cccc3c2c(cc2ccc(C#N)cc23)C1=O [Compound I-17],1 to 5 µM,1 to 5 µM,1 to 5 µM,5 to 10 µM,1 to 5 µM,5 to 10 µM,,,,,,,
CC(C)(C)OC(=O)N1CCN(CCCN2C(=O)c3ccc4c5cccc6c(Br)ccc(c7ccc(c3c47)C2=O)c65)CC1 [Compound I-18],5 to 10 µM,11 to 20 µM,5 to 10 µM,11 to 20 µM,5 to 10 µM,5 to 10 µM,,,,,,,
CONC(=O)NCCN(CCCCN1C(=O)c2cccc3c2c(cc2ccoc23)C1=O)OC [Compound I-20],5 to 10 µM,5 to 10 µM,1 to 5 µM,5 to 10 µM,5 to 10 µM,5 to 10 µM,,,,,,,
